Entries after “also recorded” stand apart in the source; their conditions may differ. Peptide text beside a SMILES is read from it.
Key:
[1] = Safety and adverse events of colistin nebulization (DHHS-CTCAE version 3.0); format: in vivo, ICU patients; conditions: 5 MIU q8, vibrating mesh nebulizer; 134 patients, 1376 days of nebulization
Experimental: Patients received 5 MIU of CMS (Colimycine®, Sanofi, Paris, France) dissolved in 6 mL of saline solution by nebulization over 30 min using a vibrating-mesh nebulizer (Aeroneb Pro®, Aerogen, Galway, […]) every 8 h. Solutions for nebulization were freshly prepared. During aerosol delivery, all patients were sedated and received assisted/controlled mechanical ventilation with a tidal volume of 6–8 mL/kg of predicted body weight and respiratory rates of 12–15 cycles/min. The humidifier was removed and the nebulizer was inserted near the Y-piece connector on the inspiratory arm
VAP, septic shock, and acute kidney injury requiring continuous […] replacement therapy were defined according to current recommendations. VAP was diagnosed in the presence of radiological and clinical signs consisting of a new and persistent infiltrate on the chest radiograph associated with two of the three following criteria: purulent tracheal aspirates, hyperthermia > 38 °C or hypothermia < 36 °C, and peripheral leukocytosis > 10,000/μL or < 1500/μL. […] Safety and adverse events (AE) were determined through the biochemical abnormalities documented in medical records according to the Department of Health and Human Services—Common Terminology Criteria for Adverse Events (DHHS-CTCAE version 3.0) classification. […]

[2] = ELF pharmacokinetics of colistin and CMS after nebulization (micro-BAL, LC-MS/MS); format: in vivo, ICU patients
Experimental: According to patients’ respiratory status, two micro-bronchoalveolar lavages (BALs) (40 mL of sterile 0.9% saline solution were blindly instilled through a telescopic catheter and immediately aspirated in a trap) were performed at steady state, before nebulization and 1 h after the end. ELF colistin concentration (COLELF) was calculated from BAL concentration (COLBAL) using urea as a dilution marker: COLELF = COLBAL X urea dilution index (plasma urea concentration/BAL urea concentration).
Purification and separation of colistin and CMS were performed using and modifying the Gobin assay. BAL samples were extracted by solid-phase extraction followed by evaporation to dryness and reconstitution in mobile phase. The chromatographic separation was carried out on an AQUITY UPLC C18 column. Polymyxin B was used as internal standard. The detection was performed on a triple quadrupole tandem mass spectrometer using multi-reaction monitoring via an electrospray ionization source with positive ionization mode.

[3] = tested on: Acinetobacter baumannii isolates; experiment: Minimum inhibitory concentration of AB isolates; format: cell-based; conditions: median [interquartile range]; values available for 79 patients; Micronaut AST system-based BMD, VITEK 2 AST-N397 card; EUCAST version 11.0
Experimental: AB isolates were identified by using matrix-assisted laser desorption ionization-time of flight mass spectrometry (MALDI-TOF MS). Minimum inhibitory concentrations (MICs) were determined by a Micronaut AST system-based BMD, VITEK 2 AST-N397 card, according to the manufacturer’s instructions. EUCAST (version 11.0, 2021) clinical breakpoints were used to interpret MICs.

[4] = cited from earlier work
Experimental: Despite the recent introduction of new antibiotics against difficult-to-treat bacteria, colistin is still used in the critically ill setting, especially as part of combination therapies. This drug is a antibiotic; it is administered as intravenous colistimethate (CMS) and then undergoes extensive plasmatic hydrolysis. CMS is mainly metabolized by the renal route apart from the amount that is modified to colistin. This agent is cleared by extra-renal, yet unknown, mechanisms, but its plasmatic levels may increase in the presence of renal failure due to the reduced clearance a ... || From a pharmacokinetic standpoint, CMS nebulization may overcome its negligible ELF penetration after intravenous administration. Although many factors may interfere with the reliability of the detected lung antibiotics concentration, including the diagnostic technique, the binding to inflammatory molecules, and the heterogeneity of lung aeration, it is widely accepted that CMS nebulization is the only strategy to obtain alveolar levels above MIC for mostly Gram-negative MDR pathogens. When treating VAP due to COS bacteria, a correct drug dose and nebulizer strategy should be reco ...

[5] = in vivo; cited from earlier work
Excerpt: In addition, the observed safety profile may be further improved by correct CMS ...

[6] = tested on: multidrug-resistant / COS Gram-negative VAP; conditions: cited from earlier work
Excerpt: There is pre-clinical evidence to support vibrating-mesh nebulizers, over jet and ultrasonic ones.

[7] = following 24 h of dosing, vibrating meshes, ten patients with MDR VAP
[8] = 326 patients with COS Gram-negative VAP, aerosolized 2 MIU q 8 h, jet nebulizer

Compound | Drug-related / pulmonary adverse events of nebulization (in words) [1] | ELF concentration one hour after nebulization ([2]; median [IQR], 7 patients, after 72 h of nebulized therapy (CMS 5 MIU q8), micro-BAL, urea dilution index, UPLC C18, tandem MS) | ELF colistin concentrations relative to CRAB minimal-inhibitory concentration (in words) ([2]; nebulized CMS 5 MIU q8) | MIC [3] | Samples with colistin ELF concentrations above 10 mcg/mL ([4]; 20 patients, 1 MIU nebulization, jet and ultrasonic machines, samples at 1 h after the aerosol) | Trough-predicted colistin ELF level, 3 MII nebulized CMS [4, 7] | Trough-predicted colistin ELF level, 5 MIU nebulized CMS [4, 7] | ELF penetration after intravenous administration (in words) [4] | Bronchospasm [5] | Episodes of bronchospasm (in words) [5] | Neuromuscular toxicity [5] | Reduction in the rate of renal failure [5] | Clinical cure rate vs controls treated with intravenous antibiotics (in words) ([6]; 5 MIU q8 h, vibrating plate nebulizer, 44 patients with multidrug-resistant AB and Pseudomonas aeruginosa vs 122 controls) | DAY-14 clinical failure rate (in words) [6, 8] | Mortality (in words) [6, 8]
CC[C@H](C)CCCCC(=O)N[C@@H](CCN)C(=O)N[C@H](C(=O)N[C@@H](CCN)C(=O)N[C@H]1CCNC(=O)[C@H]([C@@H](C)O)NC(=O)[C@H](CCN)NC(=O)[C@H](CCN)NC(=O)[C@H](CC(C)C)NC(=O)[C@@H](CC(C)C)NC(=O)[C@H](CCN)NC1=O)[C@@H](C)O [colistin] (HELM PEPTIDE1{[CC[C@H](C)CCCCC(=O)[*:2]].[Dab].T.[Dab].[Dab].[Dab].[dL].L.[Dab].[Dab].T}$PEPTIDE1,PEPTIDE1,5:R3-11:R2$$$V2.0) | did not observe any; also recorded: without observing any | 121.7 [40.1–143.1] mcg/mL | far above | 1 [0.5–1] mcg/mL | 25% | 120.4 µg/mL | 200.7 µg/mL | minimal | – | – | – | – | – | – | –
colistimethate [CMS] | did not observe any | – | – | – | – | – | – | negligible | 2% | did not report any | 3% | 33% | similar | significantly lower | without affecting
